Results reported in the supplement of paper PMC10307832.

Assays:
Assay in all cases: relative viability (nuclei count vs DMSO), 5 days (fraction); higher = more cells survive
LK-2 = test system: LK-2
Outline: (§1)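 After 5 days of treatment, lung cancer cells in 1536-well plates were fixed and stained in a single step (final 0.05% Triton X-100, 1% formaldehyde, 1 ug/ml Hoechst) and their nuclei counted on 4× images. Treatment had been applied by pin tool the day after seeding as one drug alone or as a fixed anchor-drug dose with five library-drug doses (not always all listed) in √10 steps. Relative viability is the nuclei count of treated wells divided by that of vehicle wells, and values are medians of duplicate plates.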

NCI-H661 = test system: NCI-H661
Outline: as §1

CAL-12T = test system: CAL-12T
Outline: as §1

HCC-827 = test system: HCC-827
Outline: as §1

NCI-H322M = test system: NCI-H322M
Outline: as §1

NCI-H520 = test system: NCI-H520
Outline: as §1

NCI-H1355 = test system: NCI-H1355
Outline: as §1

ABC-1 = test system: ABC-1
Outline: as §1

NCI-H1437 = test system: NCI-H1437
Outline: as §1

HCC-15 = test system: HCC-15
Outline: as §1

RERF-LC-KJ = test system: RERF-LC-KJ
Outline: as §1

SW 1573 = test system: SW 1573
Outline: as §1

NCI-H1734 = test system: NCI-H1734
Outline: as §1

EKVX = test system: EKVX
Outline: as §1

COR-L23 = test system: COR-L23
Outline: as §1

H3255 = test system: H3255
Outline: as §1

NCI-H1563 = test system: NCI-H1563
Outline: as §1

NCI-H2228 = test system: NCI-H2228
Outline: as §1

NCI-H2405 = test system: NCI-H2405
Outline: as §1

PC-3 [JPC-3] = test system: PC-3 [JPC-3]
Outline: as §1

PC-14 = test system: PC-14
Outline: as §1

CC1(C)CCC(c2ccc(Cl)cc2)=C(CN2CCN(c3ccc(C(=O)NS(=O)(=O)c4ccc(N[C@H](CCN5CCOCC5)CSc5ccccc5)c(S(=O)(=O)C(F)(F)F)c4)cc3)CC2)C1 [Navitoclax] + C[C@]1(O)C[C@@H](c2nc(-c3ccc4ccc(-c5ccccc5)nc4c3)c3c(N)nccn32)C1 [Linsitinib] (partner 1 µM)
relative viability (LK-2; first compound 0.005 µM): 0.792
relative viability (LK-2; first compound 0.01581 µM): 0.803
relative viability (LK-2; first compound 0.05 µM): 0.805
relative viability (LK-2; first compound 0.1581 µM): 0.51
relative viability (LK-2; first compound 0.5 µM): 0.623
relative viability (NCI-H661; first compound 0.005 µM): 0.524
relative viability (NCI-H661; first compound 0.01581 µM): 0.601
relative viability (NCI-H661; first compound 0.05 µM): 0.575
relative viability (NCI-H661; first compound 0.1581 µM): 0.552
relative viability (NCI-H661; first compound 0.5 µM): 0.5
relative viability (CAL-12T; first compound 0.005 µM): 0.849
relative viability (CAL-12T; first compound 0.01581 µM): 0.937
relative viability (CAL-12T; first compound 0.05 µM): 0.775
relative viability (CAL-12T; first compound 0.1581 µM): 0.736
relative viability (CAL-12T; first compound 0.5 µM): 0.726
relative viability (HCC-827; first compound 0.005 µM): 0.91
relative viability (HCC-827; first compound 0.01581 µM): 0.989
relative viability (HCC-827; first compound 0.05 µM): 0.864
relative viability (HCC-827; first compound 0.1581 µM): 0.926
relative viability (HCC-827; first compound 0.5 µM): 0.928
relative viability (NCI-H322M; first compound 0.005 µM): 0.79
relative viability (NCI-H322M; first compound 0.01581 µM): 0.992
relative viability (NCI-H322M; first compound 0.05 µM): 0.96
relative viability (NCI-H322M; first compound 0.1581 µM): 0.953
relative viability (NCI-H322M; first compound 0.5 µM): 0.921
relative viability (NCI-H520; first compound 0.005 µM): 0.891
relative viability (NCI-H520; first compound 0.01581 µM): 1.15
relative viability (NCI-H520; first compound 0.05 µM): 1.12
relative viability (NCI-H520; first compound 0.1581 µM): 0.832
relative viability (NCI-H520; first compound 0.5 µM): 0.771
relative viability (NCI-H1355; first compound 0.005 µM): 0.831
relative viability (NCI-H1355; first compound 0.01581 µM): 0.892
relative viability (NCI-H1355; first compound 0.05 µM): 0.817
relative viability (NCI-H1355; first compound 0.1581 µM): 0.775
relative viability (NCI-H1355; first compound 0.5 µM): 0.834
relative viability (ABC-1; first compound 0.005 µM): 0.641
relative viability (ABC-1; first compound 0.01581 µM): 0.976
relative viability (ABC-1; first compound 0.05 µM): 0.81
relative viability (ABC-1; first compound 0.1581 µM): 0.703
relative viability (ABC-1; first compound 0.5 µM): 0.708
relative viability (NCI-H1437; first compound 0.005 µM): 0.952
relative viability (NCI-H1437; first compound 0.01581 µM): 1.08
relative viability (NCI-H1437; first compound 0.05 µM): 1.02
relative viability (NCI-H1437; first compound 0.1581 µM): 1.09
relative viability (NCI-H1437; first compound 0.5 µM): 0.95
relative viability (HCC-15; first compound 0.005 µM): 0.819
relative viability (HCC-15; first compound 0.01581 µM): 0.97
relative viability (HCC-15; first compound 0.05 µM): 0.783
relative viability (HCC-15; first compound 0.1581 µM): 0.842
relative viability (HCC-15; first compound 0.5 µM): 0.843
relative viability (RERF-LC-KJ; first compound 0.005 µM): 0.905
relative viability (RERF-LC-KJ; first compound 0.01581 µM): 0.859
relative viability (RERF-LC-KJ; first compound 0.05 µM): 0.927
relative viability (RERF-LC-KJ; first compound 0.1581 µM): 0.915
relative viability (RERF-LC-KJ; first compound 0.5 µM): 0.904
relative viability (SW 1573; first compound 0.005 µM): 0.856
relative viability (SW 1573; first compound 0.01581 µM): 0.841
relative viability (SW 1573; first compound 0.05 µM): 0.747
relative viability (SW 1573; first compound 0.1581 µM): 0.798
relative viability (SW 1573; first compound 0.5 µM): 0.898
relative viability (NCI-H1734; first compound 0.005 µM): 0.834
relative viability (NCI-H1734; first compound 0.01581 µM): 0.948
relative viability (NCI-H1734; first compound 0.1581 µM): 0.797
relative viability (NCI-H1734; first compound 0.5 µM): 0.857
relative viability (EKVX; first compound 0.005 µM): 0.953
relative viability (EKVX; first compound 0.01581 µM): 1.28
relative viability (EKVX; first compound 0.05 µM): 0.954
relative viability (EKVX; first compound 0.1581 µM): 0.953
relative viability (EKVX; first compound 0.5 µM): 1.01
relative viability (COR-L23; first compound 0.005 µM): 0.874
relative viability (COR-L23; first compound 0.01581 µM): 0.991
relative viability (COR-L23; first compound 0.05 µM): 0.97
relative viability (COR-L23; first compound 0.1581 µM): 0.853
relative viability (COR-L23; first compound 0.5 µM): 0.88
relative viability (H3255; first compound 0.005 µM): 0.917
relative viability (H3255; first compound 0.01581 µM): 1.12
relative viability (H3255; first compound 0.05 µM): 0.877
relative viability (H3255; first compound 0.1581 µM): 0.892
relative viability (H3255; first compound 0.5 µM): 0.89
relative viability (NCI-H1563; first compound 0.005 µM): 0.99
relative viability (NCI-H1563; first compound 0.01581 µM): 1.13
relative viability (NCI-H1563; first compound 0.05 µM): 1.17
relative viability (NCI-H1563; first compound 0.1581 µM): 1.24
relative viability (NCI-H1563; first compound 0.5 µM): 1.27
relative viability (NCI-H2228; first compound 0.005 µM): 0.877
relative viability (NCI-H2228; first compound 0.01581 µM): 0.81
relative viability (NCI-H2228; first compound 0.05 µM): 0.623
relative viability (NCI-H2228; first compound 0.1581 µM): 0.626
relative viability (NCI-H2228; first compound 0.5 µM): 0.639
relative viability (NCI-H2405; first compound 0.005 µM): 0.899
relative viability (NCI-H2405; first compound 0.01581 µM): 1.02
relative viability (NCI-H2405; first compound 0.05 µM): 0.922
relative viability (NCI-H2405; first compound 0.1581 µM): 0.937
relative viability (NCI-H2405; first compound 0.5 µM): 0.88
relative viability (PC-3 [JPC-3]; first compound 0.005 µM): 0.964
relative viability (PC-3 [JPC-3]; first compound 0.01581 µM): 0.996
relative viability (PC-3 [JPC-3]; first compound 0.05 µM): 0.996
relative viability (PC-3 [JPC-3]; first compound 0.1581 µM): 0.983
relative viability (PC-3 [JPC-3]; first compound 0.5 µM): 0.969
relative viability (PC-14; first compound 0.005 µM): 1.03
relative viability (PC-14; first compound 0.01581 µM): 1.04
relative viability (PC-14; first compound 0.05 µM): 1.07
relative viability (PC-14; first compound 0.1581 µM): 0.926
relative viability (PC-14; first compound 0.5 µM): 0.977
